Measured values reported in patent publication US20230085307A1, “PYRIDAZINONE COMPOUND AND HERBICIDE” (NISSAN CHEMICAL CORPORATION, priority 2019, published 2023).

Columns and labels:
Italian ryegrass [1] = assay: Test Example 5: herbicidal effect by foliage application, plastic box (Table 20, symbol K); type: in vivo, Italian ryegrass (Lolium multiflorum); settings: foliage application, three weeks after application
Procedure, shortened: (§1)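 Foliar spray test: emulsion formulation diluted in water to a set application rate, sprayed onto 14-day-old plants raised in diluvial soil at 25° C to 30° C under glass. Both herbicidal effect and crop effect rated visually three weeks later.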

persian speedwell [2] = assay: Test Example 4: herbicidal effect by soil treatment (Table 19, symbol R); type: in vivo, Persian speedwell (Veronica persica)
Procedure, shortened: (§2)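 Step 1: sow seeds in sterilized diluvial soil, cover ~1.5 cm. Step 2: spray diluted emulsion onto soil surface at predetermined rate. Step 3: greenhouse, 25–30° C, three weeks. Step 4: grade effect on each plant by earlier criteria.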

lambsquarters [3] = assay: Test Example 5: herbicidal effect by foliage application, plastic box (Table 20, symbol O); type: in vivo, lambsquarters (Chenopodium album); settings: foliage application, three weeks after application
Procedure, shortened: as §1

velvetleaf [4] = assay: Test Example 5: herbicidal effect by foliage application, plastic box (Table 20, symbol M); type: in vivo, velvetleaf (Abutilon theophrasti); settings: foliage application, three weeks after application
Procedure, shortened: as §1

windgrass [5] = assay: Test Example 5: herbicidal effect by foliage application, plastic box (Table 20, symbol L); type: in vivo, windgrass (Apera spica-venti); settings: foliage application, three weeks after application
Procedure, shortened: as §1

southern crabgrass [6] = assay: Test Example 5: herbicidal effect by foliage application, plastic box (Table 20, symbol F); type: in vivo, southern crabgrass (Digitaria ciliaris); settings: foliage application, three weeks after application
Procedure, shortened: as §1

barnyard grass [7] = assay: Test Example 4: herbicidal effect by soil treatment (Table 19, symbol H); type: in vivo, barnyard grass (Echinochloa crus-galli)
Procedure, shortened: as §2

velvetleaf [8] = assay: Test Example 4: herbicidal effect by soil treatment (Table 19, symbol M); type: in vivo, velvetleaf (Abutilon theophrasti)
Procedure, shortened: as §2

persian speedwell [9] = assay: Test Example 5: herbicidal effect by foliage application, plastic box (Table 20, symbol R); type: in vivo, Persian speedwell (Veronica persica); settings: foliage application, three weeks after application
Procedure, shortened: as §1

redroot pigweed [10] = assay: Test Example 5: herbicidal effect by foliage application, plastic box (Table 20, symbol N); type: in vivo, redroot pigweed (Amaranthus retroflexus); settings: foliage application, three weeks after application
Procedure, shortened: as §1

Italian ryegrass [11] = assay: Test Example 4: herbicidal effect by soil treatment (Table 19, symbol K); type: in vivo, Italian ryegrass (Lolium multiflorum)
Procedure, shortened: as §2

blackgrass [12] = assay: Test Example 5: herbicidal effect by foliage application, plastic box (Table 20, symbol J); type: in vivo, blackgrass (Alopecurus myosuroides); settings: foliage application, three weeks after application
Procedure, shortened: as §1

wild oat [13] = assay: Test Example 4: herbicidal effect by soil treatment (Table 19, symbol I); type: in vivo, wild oat (Avena fatua)
Procedure, shortened: as §2

barnyard grass [14] = assay: Test Example 3: herbicidal effect by foliage application, Wagner pot (Table 18, symbol H); type: in vivo, barnyard grass (Echinochloa crus-galli)
Procedure, shortened: (§3)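 Plants were sown in alluvial soil held under 0.1–0.5 cm standing water and grown 14 days in a greenhouse at 25–30 °C. An emulsifiable formulation, water-diluted to the set dose, was then sprayed onto the foliage, and effects were scored three weeks later using previously defined criteria.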

false cleavers = assay: Test Example 4: herbicidal effect by soil treatment (Table 19, symbol Q); type: in vivo, false cleavers (Galium spurium)
Procedure, shortened: as §2

green foxtail [15] = assay: Test Example 4: herbicidal effect by soil treatment (Table 19, symbol G); type: in vivo, green foxtail (Setaria viridis)
Procedure, shortened: as §2

southern crabgrass [16] = assay: Test Example 4: herbicidal effect by soil treatment (Table 19, symbol F); type: in vivo, southern crabgrass (Digitaria ciliaris)
Procedure, shortened: as §2

chickweed [17] = assay: Test Example 5: herbicidal effect by foliage application, plastic box (Table 20, symbol P); type: in vivo, common chickweed (Stellaria media); settings: foliage application, three weeks after application
Procedure, shortened: as §1

barnyard grass [18] = assay: Test Example 5: herbicidal effect by foliage application, plastic box (Table 20, symbol H); type: in vivo, barnyard grass (Echinochloa crus-galli); settings: foliage application, three weeks after application
Procedure, shortened: as §1

blackgrass [19] = assay: Test Example 4: herbicidal effect by soil treatment (Table 19, symbol J); type: in vivo, blackgrass (Alopecurus myosuroides)
Procedure, shortened: as §2

wild oat [20] = assay: Test Example 5: herbicidal effect by foliage application, plastic box (Table 20, symbol I); type: in vivo, wild oat (Avena fatua); settings: foliage application, three weeks after application
Procedure, shortened: as §1

redroot pigweed [21] = assay: Test Example 4: herbicidal effect by soil treatment (Table 19, symbol N); type: in vivo, redroot pigweed (Amaranthus retroflexus)
Procedure, shortened: as §2

Chinese sprangletop = assay: Test Example 3: herbicidal effect by foliage application, Wagner pot (Table 18, symbol D); type: in vivo, chinese sprangletop (Leptochloa chinensis)
Procedure, shortened: as §3

chickweed [22] = assay: Test Example 4: herbicidal effect by soil treatment (Table 19, symbol P); type: in vivo, common chickweed (Stellaria media)
Procedure, shortened: as §2

rice flat sedge = assay: Test Example 3: herbicidal effect by foliage application, Wagner pot (Table 18, symbol E); type: in vivo, rice flat sedge (Cyperus iria)
Procedure, shortened: as §3

windgrass [23] = assay: Test Example 4: herbicidal effect by soil treatment (Table 19, symbol L); type: in vivo, windgrass (Apera spica-venti)
Procedure, shortened: as §2

lambsquarters [24] = assay: Test Example 4: herbicidal effect by soil treatment (Table 19, symbol O); type: in vivo, lambsquarters (Chenopodium album)
Procedure, shortened: as §2

green foxtail [25] = assay: Test Example 5: herbicidal effect by foliage application, plastic box (Table 20, symbol G); type: in vivo, green foxtail (Setaria viridis); settings: foliage application, three weeks after application
Procedure, shortened: as §1

[26] = amount of applied herbicide 320 g/ha

## COc1ccc(-c2sc3ccccc3c2-c2c(O)c(OC)nn(C)c2=O)cc1OC [1-182]
Italian ryegrass [1]; AAH 80 g/ha
  K: Italian ryegrass, herbicidal effect: 3 (Herbicidal rate of 40% or more and less than 70%)
Persian speedwell [2]; AAH 80 g/ha
  R: persian speedwell, herbicidal effect rating: 5 (Herbicidal rate of 90% or more (almost completely withered))
Lambsquarters [3]; AAH 80 g/ha
  O: lambsquarters, herbicidal effect: 5 (Herbicidal rate of 90% or more (almost completely withered))
Velvetleaf [4]; AAH 80 g/ha
  M: velvetleaf, herbicidal effect: 4 (Herbicidal rate of 70% or more and less than 90%)
Windgrass [5]; AAH 80 g/ha
  L: windgrass, herbicidal effect: 0 (Herbicidal rate of 5% or less (almost no effect))
Southern crabgrass [6]; AAH 80 g/ha
  F: southern crabgrass, herbicidal effect: 3 (Herbicidal rate of 40% or more and less than 70%)
Barnyard grass [7]; AAH 80 g/ha
  H: barnyard grass, herbicidal effect rating: 0 (Herbicidal rate of 5% or less (almost no effect))
Velvetleaf [8]; AAH 80 g/ha
  M: velvetleaf, herbicidal effect rating: 1 (Herbicidal rate of 5% or more and less than 20%)
Persian speedwell [9]; AAH 80 g/ha
  R: persian speedwell, herbicidal effect: 5 (Herbicidal rate of 90% or more (almost completely withered))
Redroot pigweed [10]; AAH 80 g/ha
  N: redroot pigweed, herbicidal effect: 3 (Herbicidal rate of 40% or more and less than 70%)
Italian ryegrass [11]; AAH 80 g/ha
  K: Italian ryegrass, herbicidal effect rating: 0 (Herbicidal rate of 5% or less (almost no effect))
Blackgrass [12]; AAH 80 g/ha
  J: blackgrass, herbicidal effect: 0 (Herbicidal rate of 5% or less (almost no effect))
Wild oat [13]; AAH 80 g/ha
  I: wild oat, herbicidal effect rating: 0 (Herbicidal rate of 5% or less (almost no effect))
Barnyard grass [14]; 80 g/ha
  herbicidal effect on H (barnyard grass), rating 0-5: 4 (Herbicidal rate of 70% or more and less than 90%)
False cleavers; AAH 80 g/ha
  Q: false cleavers, herbicidal effect rating: 0 (Herbicidal rate of 5% or less (almost no effect))
Green foxtail [15]; AAH 80 g/ha
  G: green foxtail, herbicidal effect rating: 5 (Herbicidal rate of 90% or more (almost completely withered))
Southern crabgrass [16]; AAH 80 g/ha
  F: southern crabgrass, herbicidal effect rating: 1 (Herbicidal rate of 5% or more and less than 20%)
Chickweed [17]; AAH 80 g/ha
  P: chickweed, herbicidal effect: 5 (Herbicidal rate of 90% or more (almost completely withered))
Barnyard grass [18]; AAH 80 g/ha
  H: barnyard grass, herbicidal effect: 3 (Herbicidal rate of 40% or more and less than 70%)
Blackgrass [19]; AAH 80 g/ha
  J: blackgrass, herbicidal effect rating: 0 (Herbicidal rate of 5% or less (almost no effect))
Wild oat [20]; AAH 80 g/ha
  I: wild oat, herbicidal effect: 0 (Herbicidal rate of 5% or less (almost no effect))
Redroot pigweed [21]; AAH 80 g/ha
  N: redroot pigweed, herbicidal effect rating: 5 (Herbicidal rate of 90% or more (almost completely withered))
Chinese sprangletop; 80 g/ha
  herbicidal effect on D (Chinese sprangletop), rating 0-5: 3 (Herbicidal rate of 40% or more and less than 70%)
Chickweed [22]; AAH 80 g/ha
  P: chickweed, herbicidal effect rating: 4 (Herbicidal rate of 70% or more and less than 90%)
Rice flat sedge; 80 g/ha
  herbicidal effect on E (rice flat sedge), rating 0-5: 5 (Herbicidal rate of 90% or more (almost completely withered))
Windgrass [23]; AAH 80 g/ha
  L: windgrass, herbicidal effect rating: 0 (Herbicidal rate of 5% or less (almost no effect))
Lambsquarters [24]; AAH 80 g/ha
  O: lambsquarters, herbicidal effect rating: 4 (Herbicidal rate of 70% or more and less than 90%)
Green foxtail [25]; AAH 80 g/ha
  G: green foxtail, herbicidal effect: 4 (Herbicidal rate of 70% or more and less than 90%)

## CCCC(=O)Oc1c(C)nn(C)c(=O)c1-c1c(-n2cc(Cl)cn2)sc2ccccc12 [Compound No. 1-098, 1,3-dimethyl-6-oxo-5-(2-(4-chloro-1H-pyrazol-1-yl)benzo[b]thiophen-3-yl)-1,6-dihydropyridazin-4-yl=(n-butyrate)]
Italian ryegrass [1]; AAH 320 g/ha
  K: Italian ryegrass, herbicidal effect: 2 (Herbicidal rate of 20% or more and less than 40%)
Persian speedwell [2]; [26]
  herbicidal effect rating, R: persian speedwell: 0 (Herbicidal rate of 5% or less (almost no effect))
Lambsquarters [3]; AAH 320 g/ha
  O: lambsquarters, herbicidal effect: 5 (Herbicidal rate of 90% or more (almost completely withered))
Velvetleaf [4]; AAH 320 g/ha
  M: velvetleaf, herbicidal effect: 0 (Herbicidal rate of 5% or less (almost no effect))
Windgrass [5]; AAH 320 g/ha
  L: windgrass, herbicidal effect: 0 (Herbicidal rate of 5% or less (almost no effect))
Southern crabgrass [6]; AAH 320 g/ha
  F: southern crabgrass, herbicidal effect: 0 (Herbicidal rate of 5% or less (almost no effect))
Barnyard grass [7]; [26]
  herbicidal effect rating, H: barnyard grass: 0 (Herbicidal rate of 5% or less (almost no effect))
Velvetleaf [8]; [26]
  herbicidal effect rating, M: velvetleaf: 3 (Herbicidal rate of 40% or more and less than 70%)
Persian speedwell [9]; AAH 320 g/ha
  R: persian speedwell, herbicidal effect: 3 (Herbicidal rate of 40% or more and less than 70%)
Redroot pigweed [10]; AAH 320 g/ha
  N: redroot pigweed, herbicidal effect: 5 (Herbicidal rate of 90% or more (almost completely withered))
Italian ryegrass [11]; [26]
  herbicidal effect rating, K: Italian ryegrass: 0 (Herbicidal rate of 5% or less (almost no effect))
Blackgrass [12]; AAH 320 g/ha
  J: blackgrass, herbicidal effect: 0 (Herbicidal rate of 5% or less (almost no effect))
Wild oat [13]; [26]
  herbicidal effect rating, I: wild oat: 0 (Herbicidal rate of 5% or less (almost no effect))
Barnyard grass [14]; 320 g/ha
  herbicidal effect on H (barnyard grass), rating 0-5: 0 (Herbicidal rate of 5% or less (almost no effect))
False cleavers; [26]
  herbicidal effect rating, Q: false cleavers: 0 (Herbicidal rate of 5% or less (almost no effect))
Green foxtail [15]; [26]
  herbicidal effect rating, G: green foxtail: 0 (Herbicidal rate of 5% or less (almost no effect))
Southern crabgrass [16]; [26]
  herbicidal effect rating, F: southern crabgrass: 0 (Herbicidal rate of 5% or less (almost no effect))
Chickweed [17]; AAH 320 g/ha
  P: chickweed, herbicidal effect: 5 (Herbicidal rate of 90% or more (almost completely withered))
Barnyard grass [18]; AAH 320 g/ha
  H: barnyard grass, herbicidal effect: 3 (Herbicidal rate of 40% or more and less than 70%)
Blackgrass [19]; [26]
  herbicidal effect rating, J: blackgrass: 0 (Herbicidal rate of 5% or less (almost no effect))
Wild oat [20]; AAH 320 g/ha
  I: wild oat, herbicidal effect: 0 (Herbicidal rate of 5% or less (almost no effect))
Redroot pigweed [21]; [26]
  herbicidal effect rating, N: redroot pigweed: 0 (Herbicidal rate of 5% or less (almost no effect))
Chinese sprangletop; 320 g/ha
  herbicidal effect on D (Chinese sprangletop), rating 0-5: 0 (Herbicidal rate of 5% or less (almost no effect))
Chickweed [22]; [26]
  herbicidal effect rating, P: chickweed: 3 (Herbicidal rate of 40% or more and less than 70%)
Rice flat sedge; 320 g/ha
  herbicidal effect on E (rice flat sedge), rating 0-5: 4 (Herbicidal rate of 70% or more and less than 90%)
Windgrass [23]; [26]
  herbicidal effect rating, L: windgrass: 0 (Herbicidal rate of 5% or less (almost no effect))
Lambsquarters [24]; [26]
  herbicidal effect rating, O: lambsquarters: 4 (Herbicidal rate of 70% or more and less than 90%)
Green foxtail [25]; AAH 320 g/ha
  G: green foxtail, herbicidal effect: 2 (Herbicidal rate of 20% or more and less than 40%)
